In PubChem BioAssay (NCI) one finds TGI and GI50 data, which are given here for 13 compounds.

The structures appear in SMILES notation. Values joined by “and” are separate entries in the source; they are usually repeats but may differ in a detail not shown here. Equal entries are not always repeated.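 Dose response: 5 concentrations. Exposure: 48 h. Format: 96-well plates. Endpoint: linear interpolation; highest concentration if not reached. GI50 is the concentration that inhibits growth by half. At the TGI there is no net growth.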

What all share (test): growth of human tumour cells (NCI), 48 h
Assay [1] deals with CAKI-1 renal.
Assay [2] relates to HCT-116 colon.
In assay [3] the test system is HOP-62 NSCLC.
Assay [4] concerns IGROV1 ovarian.
In assay [5] the test system is KM12 colon.
For assay [6], the system named is MALME-3M melanoma.
For assay [7], the system named is MOLT-4 leukemia.
Assay [8] has as its system OVCAR-8 ovarian.
Assay [9] relates to RXF 393 renal.
For assay [10], the system named is UACC-257 melanoma.

`Cn1c2ccccc2c2[nH]c3ccccc3c(=O)c21`: the TGI in assay [1], in [2], in [3], in assay [4], in assay [5] and in [6] was greater than 100 µM each time. The TGI in [7], in [8], in assay [9] and in [10] was greater than 100 µM throughout.
For `O=C(CC(=O)c1ccccc1)C(=O)NC12CC3CC(CC(C3)C1)C2`, the TGI in assay [1], in assay [2], in assay [3], in assay [4], in assay [5] and in [6] was greater than 100 µM throughout. Moreover, the TGI in [7] is greater than 100 µM; in assay [8], greater than 100 µM; in [9], greater than 47.3 µM; in assay [10], greater than 100 µM.
Consider `Cc1ccccc1NC(=O)c1cc2ccccc2cc1O`, for which the GI50 in [1] is 2.01 µM; in assay [2], 3.45 µM; in assay [3], 2.47 µM; in [4], 2.65 µM; in assay [5], 3.36 µM; in [6] it was 1.98 µM. Moreover, the GI50 was 3.98 µM in assay [7], 3.46 µM in assay [8], 2.78 µM in assay [9] and 3.52 µM in assay [10]. The TGI in [1] is 5.87 µM; in assay [2] it was 15.1 µM; in assay [3], 7.88 µM; in assay [4] it was 30.3 µM; in [5], greater than 100 µM; in assay [6], 7.29 µM. The TGI in assay [7] is greater than 100 µM; in assay [8], 59.3 µM; in assay [9], 7.23 µM; in [10], 16.2 µM.
For `COc1cc2c3cc1Oc1c(OC)c(OC)cc4c1C(Cc1ccc(cc1)Oc1cc(ccc1O)CC3N(C)CC2)N(C)CC4` (stereo not drawn), the TGI in assay [1] is 42.9 µM and 31.4 µM; in [2], 21 µM and > 100 µM; in [3] it was 34.7 µM; in [4], 43.8 µM and 29.4 µM; in assay [5] it was 24.8 µM and 26.2 µM; in assay [6], 27 µM and 26 µM. Besides, the TGI in [7] is 30.8 µM and 36.8 µM; in assay [8], > 100 µM and 34.8 µM; in assay [9] it was 5.69 µM and 4.03 µM; in assay [10], 26.7 µM and 4.29 µM. For the same compound, the GI50 in assay [10] is 13.3 µM and 1.96 µM.
With `CCc1nc(N)nc(N)c1C#CC(C)c1cc(-c2ccnc(C)c2)c2oc(C)nc2c1` (stereo not drawn), the GI50 in assay [1] is less than 0.0109 µM; in [2] it was less than 0.01 µM; in assay [3], less than 0.01 µM; in assay [4] it was less than 0.01 µM; in assay [5], 0.0201 µM; in assay [6] it was 2.11 µM. Besides, the GI50 in assay [7] was less than 0.01 µM; in [8], less than 0.01 µM; in [9] it was 0.0395 µM. Further, the TGI in assay [1] was 5.58 µM; in [2], 10.9 µM; in assay [3], 5.92 µM; in assay [4], 6.23 µM; in assay [5], 10.9 µM; in assay [6], 14.4 µM. Further, the TGI in [7] is 8.81 µM; in assay [8] it was 47.1 µM; in assay [9] it was 2.71 µM; in [10], 13.2 µM.
On to `COc1cc(/C=C\c2ccc(Cl)cc2)cc(OC)c1OC`, for which the TGI in assay [1] is 47.4 µM; in [2] it was greater than 100 µM; in [3], greater than 100 µM; in assay [4], greater than 100 µM; in [5], greater than 100 µM; in assay [6], 57.3 µM. Besides, the TGI was 6.87 µM in [7], greater than 100 µM in assay [8], greater than 100 µM in assay [9] and 39.2 µM in assay [10].
`CCOC(=O)c1cn(CC)c2cc3c(cc2c1=O)SCS3`: the TGI in assay [1], in [3], in [4], in [5], in [6] and in [7] was greater than 100 µM each time. Further, the TGI in assay [8], in assay [9] and in assay [10] was greater than 100 µM throughout.
As to `CC(=O)O[C@H]1CC[C@@]2(C)C(=C/C(=N\[N+](=O)[O-])[C@H]3C4CCC([C@H](C)CCCC(C)C)[C@@]4(C)CCC32)C1` (stereo partly drawn), the TGI in [1], in assay [2], in assay [3], in assay [4], in assay [6] and in [7] was greater than 100 µM throughout. Also, the TGI in [8], in [9] and in [10] was greater than 100 µM in each case.
For `Nc1ccc(C2=Nc3ccccc3SC(c3ccccc3O)C2)cc1` (stereo not drawn), the TGI was greater than 100 µM in [1]; greater than 100 µM in assay [3]; greater than 100 µM in assay [4]; greater than 100 µM in assay [5]; greater than 100 µM in assay [6]; 58.5 µM in assay [7]. In addition, the TGI in [8], in assay [9] and in assay [10] was greater than 100 µM each time.
With `CC(=O)O/N=C/c1cc2c(cc1Br)OCO2`, the TGI in assay [1], in [3], in [4], in assay [5], in assay [6] and in [7] was greater than 349 µM throughout. Further, the TGI in assay [8], in [9] and in [10] was greater than 349 µM in each case.
Consider `O=C(CC(=O)C1CCOC1=O)C(=O)Nc1ccc(Cl)cc1` (stereo not drawn), for which the TGI in assay [1], in assay [2], in assay [3], in assay [4], in assay [5] and in assay [6] was greater than 100 µM throughout. Further, the TGI in assay [8], in assay [9] and in [10] was greater than 100 µM in each case.
For the compound `OC1c2ccccc2C2C(O)c3ccccc3C12` (stereo not drawn), the TGI in assay [1], in assay [3], in [4], in [5], in assay [6] and in assay [7] was greater than 100 µM in each case. The TGI in assay [8], in [9] and in [10] was greater than 100 µM throughout.
As to `CN(C)CC1=Nc2cccc3cccc(c23)N1`, the TGI in assay [1] is 38.6 µM; in assay [2], 30.8 µM; in [3] it was greater than 100 µM; in assay [4] it was 36.6 µM; in assay [5], 59.3 µM; in assay [6] it was 36.5 µM. The figures for the TGI in [8], in assay [9] and in [10] were greater than 100 µM, 31.9 µM and 31 µM, respectively.
